Source: patent US20110301222A1, “COMBINATION THERAPY FOR THE TREATMENT OF CANCER” (Isis Pharmaceuticals, Inc., priority 2008, published 2011)
Marks after values point to notes of the source that are not given here. In the oligonucleotide strings, read from the 5' end, every base follows the letter of its sugar. An asterisk marks phosphorothioate; unmarked linkages are phosphodiester. Other units and linkages are bracketed, terminal groups are in braces. A string of capitals states the bases alone. e = 2'-O-(2-methoxyethyl) (MOE); [5mC] = 5-methylcytosine; d = 2'-deoxy (DNA)

How the values were obtained:
Format in all cases: in vivo, athymic nude mice
[1] = tested on: A549 Non-Small Cell Lung Cancer Xenograft; test: A549 non-small cell lung cancer xenograft tumor volume in mice; conditions: for Mean Tumor Volume: ASO 50 mg/kg i.v., docetaxel 10 mg/kg IP once weekly, from 8 days after first ASO dose; for Percent Reduction in Mean Tumor Volumes (observed): NSCLC A549, Day 50, vs. vehicle control, negative = reduction, docetaxel 10 mg/kg
Experimental: (§1) To determine whether the eIF-4E ASO complements or enhances the activity of docetaxel, the effect of the combined use of the eIF-4E ASO and docetaxel on tumor volume in 3 human xenograft cancer models is studied as follows.
(§2) Xenograft studies are carried out as described in Graff et al. (2005) Cancer Res. 65:7462-7469. Five million human cancer cells representing non-small cell lung cancer (line A549; ATCC, accession no. CCL-185), hormone refractory prostate cancer (line PC-3; ATCC, accession no. CRL-1435), and ER-/PR-HER2-breast cancer (line MDA-231; ATCC, accession no. HTB-26) are injected subcutaneously in the flank of 6-8 week old, athymic nude mice (Harlan, Indianapolis, Ind.) in a 1:1 mixture of serum-free growth medium and matrigel (Becton Dickinson, Bedford, Mass., catalogue # 354234). Mice are monitored daily for palpable tumors.
(§3) When tumor volumes reach ˜50-100 mm^3, mice are randomized to treatment groups (Graff et al. (2007) J. Clin. Invest. 117:2638-48). Body weight is monitored each time tumors are measured.
(§4) For treatment, all mice are injected intravenously with the eIF-4E ASO in saline in a total volume of 200 μl. The ASO consists of the nucleotide sequence 5′-[…]-3′ (SEQ ID NO:1), in which every internucleoside linkage is a phosphorothioate linkage, nucleotides 1-5 and 16-20 reading from the 5′ end to the 3′ end each comprise a 2′-O-(2-methoxyethyl) sugar, nucleotides 6-15 are 2′-deoxynucleotides, every cytosine residue is a 5-methylcytosine, and which is in the form of a sodium salt. The mice are first injected with an initial loading dose of 50 mg/kg ASO for 3 consecutive days, followed by 50 mg/kg thrice weekly thereafter.
(§5) Taxotere® (docetaxel) dosing begins 8 days after the first ASO dose to allow time for reduction of eIF-4E protein expression. Mice are dosed with 2.5 or 10 mg/kg Taxotere® (Sanofi-Aventis) intraperitoneally (IP) in 1% ethanol in 5% dextrose water in a volume of 200 μl once weekly for 3 weeks.
(§6) Tumor volumes are calculated measuring the largest (L) and smallest (W) diameters with a caliper. The formula is: Volume=L×W^2×0.534. Tumor volume data are transformed to a log scale to equalize variance across time and treatment groups. The log volume data are analyzed with a two-way repeated measures analysis of variance by time and treatment using SAS PROC MIXED software (SAS Institute Inc, Cary, N.C.) using the spatial power covariance structure. Treatment groups are compared to the control group at each time point and overall. The data may be plotted as means and standard errors for each treatment group versus time. Additivity is assessed in two ways: (1) as an overall interaction effect between the ASO and Taxotere® in the repeated measures analysis, and (2) by using the Bliss Independence method on the final day of the study (C. I. Bliss (1939) Ann. Appl. Biol. 26:585-615). These two methods yield the same results.
(§7) The observed percent reductions in mean tumor volume at the conclusion of each study resulting from the various treatments are shown in Table 4. These are calculated as: […]
(§8) The “Expected if Additive” percent reductions in mean tumor volume shown in Table 4 are calculated using the Bliss Independence definition of additivity, as follows: […]

[2] = tested on: MDA-231 Breast Cancer Xenograft; test: MDA-231 breast cancer xenograft tumor volume in mice; conditions: for Percent Reduction in Mean Tumor Volumes (observed): Breast MDA-231, Day 33, vs. vehicle control, negative = reduction, + = increase, Taxotere 2.5 mg/kg; for Mean Tumor Volume: ASO 50 mg/kg i.v., Taxotere 2.5 mg/kg IP once weekly, from 8 days after first ASO dose
Experimental: as §1, §2, §3, §4, §5, §6, §7, §8

[3] = tested on: PC-3 Hormone-Refractory Prostate Cancer Xenograft; test: PC-3 hormone-refractory prostate cancer xenograft tumor volume in mice; conditions: for Mean Tumor Volume: ASO 50 mg/kg i.v., Taxotere 10 mg/kg IP once weekly, from 8 days after first ASO dose; for Percent Reduction in Mean Tumor Volumes (observed): Prostate PC3, Day 35, vs. vehicle control, negative = reduction, Taxotere 10 mg/kg
Experimental: as §1, §2, §3, §4, §5, §6, §7, §8

Molecule | Mean Tumor Volume ([1]; Day 7) | Mean Tumor Volume ([1]; Day 10) | Mean Tumor Volume ([1]; Day 15) | Mean Tumor Volume ([1]; Day 18) | Mean Tumor Volume ([1]; Day 22) | Mean Tumor Volume ([1]; Day 25) | Mean Tumor Volume ([1]; Day 29) | Mean Tumor Volume ([1]; Day 32) | Mean Tumor Volume ([1]; Day 36) | Mean Tumor Volume ([1]; Day 39) | Mean Tumor Volume ([1]; Day 43) | Mean Tumor Volume ([1]; Day 46) | Mean Tumor Volume ([1]; Day 50) | Percent Reduction in Mean Tumor Volumes (observed) [1] | Percent Reduction in Mean Tumor Volumes (observed) [2] | Mean Tumor Volume ([2]; Day 5) | Mean Tumor Volume ([2]; Day 8) | Mean Tumor Volume ([2]; Day 12) | Mean Tumor Volume ([2]; Day 15) | Mean Tumor Volume ([2]; Day 19) | also measured
CC(=O)O[C@@]12CO[C@@H]1C[C@H](O)[C@@]1(C)C(=O)[C@H](O)C3=C(C)[C@@H](OC(=O)[C@H](O)[C@@H](NC(=O)OC(C)(C)C)c4ccccc4)C[C@@](O)([C@@H](OC(=O)c4ccccc4)[C@H]21)C3(C)C [Docetaxel, (2R,3S)—N-carboxy-3-phenylisoserine,N-tert-butyl ester, 13-ester with 5β-20-epoxy-1,2α,4,7β,10β,13α-hexahydroxytax-11-en-9-one 4-acetate 2-benzoate, trihydrate, reference compound] | 49.7 mm^3 | 56.7 mm^3 | 114.8 mm^3 | 70.0 mm^3 | 135.8 mm^3 | 170.1 mm^3 | 257.0 mm^3 | 261.5 mm^3 | 290.0 mm^3 | 282.3 mm^3 | 342.6 mm^3 | 310.2 mm^3 | 343.8 mm^3 | −29.6% | −1.4% | 78.7 mm^3 | 130.1 mm^3 | 180.9 mm^3 | 221.0 mm^3 | 270.3 mm^3 | Mean Tumor Volume ([2]; Day 22): 333.9 mm^3; Mean Tumor Volume ([2]; Day 26): 384.9 mm^3; Mean Tumor Volume ([2]; Day 29): 450.4 mm^3; Mean Tumor Volume ([2]; Day 33): 529.6 mm^3; Mean Tumor Volume ([3]; Day 7): 46.3 mm^3; Mean Tumor Volume ([3]; Day 12): 106.8 mm^3; Mean Tumor Volume ([3]; Day 15): 134.7 mm^3; Mean Tumor Volume ([3]; Day 19): 164.8 mm^3; Mean Tumor Volume ([3]; Day 22): 171.7 mm^3; Mean Tumor Volume ([3]; Day 27): 157.4 mm^3; Mean Tumor Volume ([3]; Day 29): 162.7 mm^3; Mean Tumor Volume ([3]; Day 33): 161.6 mm^3; Mean Tumor Volume ([3]; Day 35): 167.0 mm^3; Percent Reduction in Mean Tumor Volumes (observed) [3]: −69.5%*
d(P-thio) ([2′-O-(2-methoxyethyl)] m5rU-([2′-O-(2-methoxyethyl)] rG-([2′-O-(2-methoxyethyl)] m5rU-([2′-O-(2-methoxyethyl)] m5rC-([2′-O-(2-methoxyethyl)] rA-T-A-T-T-m5C-m5C-T-G-G-A-([2′-O-(2-methoxyethyl)] m5rU-([2′-O-(2-methoxyethyl)] m5rC-([2′-O-(2-methoxyethyl)] m5rC-([2′-O-(2-methoxyethyl)] m5rU-([2′-O-(2-methoxyethyl)] m5rU) (antisense eT*eG*eT*e[5mC]*eA*dT*dA*dT*dT*d[5mC]*d[5mC]*dT*dG*dG*dA*eT*e[5mC]*e[5mC]*eT*eT) [eIF-4E ASO] | 52.7 mm^3 | 69.4 mm^3 | 113.7 mm^3 | 79.1 mm^3 | 139.5 mm^3 | 149.0 mm^3 | 220.1 mm^3 | 249.5 mm^3 | 256.6 mm^3 | 239.1 mm^3 | 313.2 mm^3 | 292.3 mm^3 | 404.0 mm^3 | −17.3% | +16.6% | 78.9 mm^3 | 129.4 mm^3 | 166.6 mm^3 | 221.0 mm^3 | 268.2 mm^3 | Mean Tumor Volume ([2]; Day 22): 356.3 mm^3; Mean Tumor Volume ([2]; Day 26): 435.9 mm^3; Mean Tumor Volume ([2]; Day 29): 574.1 mm^3; Mean Tumor Volume ([2]; Day 33): 626.2 mm^3; Effect on mean tumor volume (in words) ([2]; breast cancer model, ASO alone): non-statistically significant increase in mean tumor volume; Mean Tumor Volume ([3]; Day 7): 49.8 mm^3; Mean Tumor Volume ([3]; Day 12): 88.3 mm^3; Mean Tumor Volume ([3]; Day 15): 130.3 mm^3; Mean Tumor Volume ([3]; Day 19): 159.0 mm^3; Mean Tumor Volume ([3]; Day 22): 218.8 mm^3; Mean Tumor Volume ([3]; Day 27): 294.5 mm^3; Mean Tumor Volume ([3]; Day 29): 343.9 mm^3; Mean Tumor Volume ([3]; Day 33): 424.0 mm^3; Mean Tumor Volume ([3]; Day 35): 491.2 mm^3; Percent Reduction in Mean Tumor Volumes (observed) [3]: −10.2%
